Results published in DBAASP.
Values after ≈ are worked out from the molar mass of the structure shown.

How the values were obtained:
Assay in all cases: ≥ marks a high value that may be exact or a test limit, other limits are often not marked, values filed in µg/mL are converted to µM
[1] = test system: Candida albicans ATCC 90028
[2] = test system: Escherichia coli ATCC 25922
[3] = test system: Staphylococcus aureus ATCC 25923
Pseudomonas aeruginosa = test system: Pseudomonas aeruginosa
Staphylococcus aureus = test system: Staphylococcus aureus
Escherichia coli = test system: Escherichia coli
Candida albicans = test system: Candida albicans
[4] = test system: Pseudomonas aeruginosa PAO1
Escherichia coli UB1005 = test system: Escherichia coli UB1005

| SMILES | MIC (Pseudomonas aeruginosa) | MIC (Staphylococcus aureus) | MIC (Escherichia coli) | also measured |
| --- | --- | --- | --- | --- |
| CC[C@H](C)[C@H](NC(=O)[C@H](CC(C)C)NC(=O)[C@@H]1CCCN1C(=O)[C@H](CC(C)C)NC(=O)[C@@H](N)Cc1ccccc1)C(=O)N[C@@H](C)C(=O)NCC(=O)N[C@H](C(=O)N[C@@H](C)C(=O)N[C@@H](C)C(=O)N[C@@H](CO)C(=O)N[C@H](C(=O)N[C@@H](CC(C)C)C(=O)N1CCC[C@H]1C(=O)N[C@@H](CCCCN)C(=O)N[C@H](C(=O)N[C@@H](Cc1ccccc1)C(=O)N[C@H]1CSSC[C@@H](C(=O)O)NC(=O)[C@H](CCCCN)NC(=O)[C@H](CCCCN)NC(=O)[C@H]([C@@H](C)O)NC(=O)[C@H]([C@@H](C)CC)NC(=O)[C@H](Cc2ccccc2)NC1=O)[C@@H](C)CC)[C@@H](C)CC)C(C)C [FLPLIAGVAASILPKIFCFITKKC] | – | – | – | MIC [1]: 3 µM (≈ 7.78 µg/mL); MIC [2]: > 100 µM; MIC [3]: 3 µM (≈ 7.78 µg/mL) |
| CC[C@H](C)[C@H](NC(=O)CN)C(=O)NCC(=O)N[C@@H](CCCCN)C(=O)N[C@@H](Cc1ccccc1)C(=O)N[C@@H](CC(C)C)C(=O)N[C@@H](Cc1cnc[nH]1)C(=O)N[C@@H](CO)C(=O)N[C@@H](C)C(=O)N[C@@H](CCCCN)C(=O)N[C@@H](CCCCN)C(=O)N[C@@H](Cc1ccccc1)C(=O)NCC(=O)N[C@@H](CCCCN)C(=O)N[C@@H](C)C(=O)N[C@@H](Cc1c[nH]c2ccccc12)C(=O)N[C@H](C(=O)NCC(=O)N[C@@H](CCC(=O)O)C(=O)N[C@H](C(=O)N[C@@H](CCSC)C(=O)N[C@@H](CC(N)=O)C(=O)N[C@@H](CO)C(N)=O)[C@@H](C)CC)C(C)C [GIGKFLHSAKKFGKAWVGEIMNS] | 80 µM (≈ 200 µg/mL) | > 80 µM | 40 µM (≈ 100 µg/mL) | – |
| CC[C@H](C)[C@H](NC(=O)CN)C(=O)NCC(=O)N[C@@H](CCCCN)C(=O)N[C@@H](Cc1ccccc1)C(=O)N[C@@H](CC(C)C)C(=O)N[C@@H](Cc1cnc[nH]1)C(=O)N[C@H](C(=O)N[C@@H](CC(C)C)C(=O)N[C@@H](CCCCN)C(=O)N[C@H](C(=O)N[C@@H](Cc1ccccc1)C(=O)NCC(=O)N[C@@H](CCCCN)C(=O)N[C@@H](CCCCN)C(=O)N[C@@H](Cc1c[nH]c2ccccc12)C(=O)N[C@H](C(=O)NCC(=O)N[C@@H](CCC(=O)O)C(=O)N[C@H](C(=O)N[C@@H](CCSC)C(=O)N[C@@H](CC(N)=O)C(=O)N[C@@H](CO)C(N)=O)[C@@H](C)CC)C(C)C)[C@@H](C)O)[C@@H](C)O [GIGKFLHTLKTFGKKWVGEIMNS] | 13 µM (≈ 33.7 µg/mL) | 13 µM (≈ 33.7 µg/mL) | 13 µM (≈ 33.7 µg/mL) | – |
| CC[C@H](C)[C@H](NC(=O)[C@H](CCCCN)NC(=O)[C@H](CC(=O)O)NC(=O)[C@H](CC(C)C)NC(=O)[C@H](CC(C)C)NC(=O)CNC(=O)[C@@H](NC(=O)[C@H](C)NC(=O)[C@H](CC(C)C)NC(=O)[C@H](CC(N)=O)NC(=O)[C@H](CCCCN)NC(=O)[C@H](C)NC(=O)[C@@H](NC(=O)[C@H](CC(N)=O)NC(=O)[C@H](CCCCN)NC(=O)[C@@H](NC(=O)[C@@H](NC(=O)[C@H](CC(=O)O)NC(=O)[C@H](CC(C)C)NC(=O)[C@H](CC(C)C)NC(=O)CN)[C@@H](C)O)[C@@H](C)CC)[C@@H](C)O)C(C)C)C(=O)N[C@@H](CCCCN)C(=O)N[C@H]1CSSC[C@@H](C(=O)O)NC(=O)CNC(=O)[C@H]([C@@H](C)O)NC(=O)[C@H](CCSC)NC(=O)[C@H](CCCCN)NC1=O [GLLDTIKNTAKNLAVGLLDKIKCKMTGC] | – | – | – | MIC [1]: ≥ 150 µM; MIC [2]: 3 µM (≈ 8.88 µg/mL) |
| CC[C@H](C)[C@H](N)C(=O)N[C@@H](CC(C)C)C(=O)NCC(=O)N[C@@H](C)C(=O)N[C@H](C(=O)N[C@H](C(=O)N1CCC[C@H]1C(=O)N[C@@H](CC(C)C)C(=O)N[C@H](C(=O)N[C@@H](CO)C(=O)NCC(=O)N[C@@H](CC(C)C)C(=O)N[C@@H](CC(C)C)C(=O)N[C@@H](CO)C(=O)N[C@@H](Cc1cnc[nH]1)C(=O)N[C@@H](CC(C)C)C(N)=O)C(C)C)[C@@H](C)CC)[C@@H](C)CC [ILGAIIPLVSGLLSHL] | – | 19.3 µM (≈ 31.2 µg/mL) | > 400 µM | MIC (Candida albicans): 310 µM (≈ 501 µg/mL) |
| CC(C)C[C@H](NC(=O)[C@H](C)NC(=O)[C@H](CCCCN)NC(=O)[C@H](Cc1c[nH]c2ccccc12)NC(=O)[C@H](CC(C)C)NC(=O)[C@H](CCCCN)NC(=O)[C@H](C)NC(=O)[C@H](CC(C)C)NC(=O)[C@H](C)NC(=O)[C@H](CCCCN)NC(=O)[C@H](C)NC(=O)[C@H](CC(C)C)NC(=O)[C@H](C)NC(=O)[C@@H](N)CCCCN)C(=O)N[C@@H](C)C(=O)N[C@@H](CCCCN)C(=O)N[C@@H](C)C(=O)N[C@@H](C)C(N)=O [KALAKALAKLWKALAKAA] | 24 µM (≈ 44.8 µg/mL) | 1.5 µM (≈ 2.8 µg/mL) | 6 µM (≈ 11.2 µg/mL) | – |
| CC(C)C[C@H](NC(=O)[C@H](C)NC(=O)[C@H](CC(C)C)NC(=O)[C@H](CCCCN)NC(=O)[C@H](CC(C)C)NC(=O)[C@H](C)NC(=O)[C@H](CC(C)C)NC(=O)[C@@H](N)CCCCN)C(=O)N[C@@H](CCCCN)C(=O)N[C@@H](C)C(=O)N[C@@H](Cc1c[nH]c2ccccc12)C(=O)N[C@@H](CCCCN)C(=O)N[C@@H](C)C(=O)N[C@@H](C)C(=O)N[C@@H](CC(C)C)C(=O)N[C@@H](CCCCN)C(=O)N[C@@H](CC(C)C)C(=O)N[C@@H](C)C(N)=O [KLALKLALKAWKAALKLA] | 14.7 µM (≈ 28.7 µg/mL) | 1.84 µM (≈ 3.58 µg/mL) | 3.68 µM (≈ 7.17 µg/mL) | – |
| CC[C@H](C)[C@H](NC(=O)[C@H](Cc1ccccc1)NC(=O)[C@H](CO)NC(=O)[C@H](CCCCN)NC(=O)[C@H](Cc1c[nH]c2ccccc12)NC(=O)[C@@H](N)CCCCN)C(=O)N[C@@H](CCCCN)C(=O)N[C@@H](CCCCN)C(=O)N[C@@H](CCCN=C(N)N)C(=O)N[C@H](C(=O)N[C@@H](CO)C(=O)N[C@@H](CCCCN)C(=O)N[C@@H](Cc1ccccc1)C(=O)N[C@@H](CC(C)C)C(=O)N[C@@H](Cc1cnc[nH]1)C(=O)N[C@@H](CO)C(=O)N[C@@H](C)C(=O)N[C@@H](CCCCN)C(=O)N[C@@H](CCCCN)C(=O)N[C@@H](Cc1ccccc1)C(N)=O)[C@@H](C)O [KWKSFIKKRTSKFLHSAKKF] | > 20 µM | – | – | – |
| CC[C@H](C)[C@H](NC(=O)[C@H](CCCN=C(N)N)NC(=O)[C@@H](NC(=O)[C@H](CCCN=C(N)N)NC(=O)[C@H](Cc1c[nH]c2ccccc12)NC(=O)[C@H](Cc1ccccc1)NC(=O)[C@H](Cc1ccccc1)NC(=O)[C@@H]1CCCN1)[C@@H](C)CC)C(=O)N[C@@H](CCCN=C(N)N)C(=O)N[C@@H](CCCN=C(N)N)C(N)=O [PFFWRIRIRR] | – | – | – | MIC [2]: 5.53 µM (≈ 7.99 µg/mL); MIC [4]: 5.53 µM (≈ 7.99 µg/mL) |
| CC[C@H](C)[C@H](NC(=O)[C@H](CCCCN)NC(=O)[C@H](CS)NC(=O)[C@H](C)NC(=O)[C@@H](NC(=O)[C@H](Cc1ccccc1)NC(=O)CNC(=O)[C@H](CC(C)C)NC(=O)CNC(=O)[C@@H](NC(=O)[C@H](CCCCN)NC(=O)CNC(=O)[C@H](CC(C)C)NC(=O)[C@H](CC(N)=O)NC(=O)[C@H](CCCCN)NC(=O)[C@H](CC(C)C)NC(=O)[C@@H](NC(=O)[C@H](CO)NC(=O)[C@H](CC(C)C)NC(=O)[C@H](CCSC)NC(=O)[C@@H](N)CO)C(C)C)C(C)C)C(C)C)C(=O)N[C@@H](CCCCN)C(=O)N[C@@H](CCCCN)C(=O)N[C@@H](CCC(N)=O)C(=O)N[C@@H](CS)C(=O)O [SMLSVLKNLGKVGLGFVACKIKKQC] | – | 20 µM (≈ 53.3 µg/mL) | 10 µM (≈ 26.7 µg/mL) | MIC (Candida albicans): 20 µM (≈ 53.3 µg/mL) |
| CC[C@H](C)[C@H](NC(=O)[C@H](Cc1cnc[nH]1)NC(=O)[C@H](CCCN=C(N)N)NC(=O)[C@@H]1CCCN1C(=O)[C@@H]1CCCN1C(=O)[C@H](CCCN=C(N)N)NC(=O)[C@@H]1CCCN1C(=O)[C@H](CCCN=C(N)N)NC(=O)[C@@H]1CCCN1C(=O)[C@H](CC(C)C)NC(=O)[C@H](Cc1ccc(O)cc1)NC(=O)[C@@H]1CCCN1C(=O)[C@@H]1CCCN1C(=O)[C@H](CCCCN)NC(=O)[C@H](CC(=O)O)NC(=O)[C@@H](N)C(C)C)C(=O)N[C@@H](Cc1ccc(O)cc1)C(=O)N[C@@H](CC(N)=O)C(=O)N[C@@H](CCCN=C(N)N)C(N)=O [VDKPPYLPRPRPPRHIYNR] | – | – | – | MIC (Escherichia coli UB1005): 0.548 µM (≈ 1.3 µg/mL); MIC [3]: > 54 µM; MIC [4]: 27 µM (≈ 64 µg/mL) |
